Laboratory results from the NIST ThermoML archive (doi:10.1021/je901020a).
Where “and” joins values, the source holds several entries; their conditions need not be identical. Equal entries are not always repeated. ± gives the expanded uncertainty stated by the source.

How the values were obtained:
[1] = refractive index (Na D-line) (dimensionless); conditions: 101.33 kPa, Liquid, Standard Abbe refractometry
[2] = 101 kPa, Liquid; for speed of sound: Pulse-echo method

Compound	refractive index ([1]; 298.15 K)	refractive index ([1]; 313.15 K)	mass density ([2]; 298.15 K)	speed of sound ([2]; 298.15 K)	mass density ([2]; 313.15 K)	speed of sound ([2]; 313.15 K)
Cc1ccc(C)cc1 [1,4-dimethylbenzene]	1.49312 ± 0.001	1.48444 ± 0.001	856.6 ± 0.5 kg/m3	1310 ± 2 m/s	843.5 ± 0.5 kg/m3	1248 ± 2 m/s
C1CCCCC1 [cyclohexane]	1.4236 ± 0.00064	1.41516 ± 0.00064	773.9 ± 0.5 kg/m3	1255 ± 2 m/s	759.6 ± 0.5 kg/m3 and 759.59 ± 0.5 kg/m3	1182 ± 2 m/s
C1CCCCCCC1 [cyclooctane]	1.45598 ± 0.00061	1.44877 ± 0.00061	831.5 ± 0.5 kg/m3	1391 ± 2 m/s	819.2 ± 0.5 kg/m3	1326 ± 2 m/s and 1325 ± 2 m/s
C1CCCC1 [cyclopentane]	1.40292 ± 0.001	1.39456 ± 0.001	740 ± 0.6 kg/m3	1204 ± 2 m/s	725 ± 0.7 kg/m3	1130 ± 2 m/s
CC1CCCCC1 [methylcyclohexane]	1.42062 ± 0.00064	1.41274 ± 0.00064 and 1.41274 ± 0.001	765 ± 0.6 kg/m3 and 765.1 ± 0.6 kg/m3	1215 ± 2 m/s	751.9 ± 0.6 kg/m3	1150 ± 2 m/s
